# Assay results published in patent publication US20110086759A1, “CHEMICAL COMPOUNDS” (SYNGENTA CROP PROTECTION, INC., priority 2007, published 2011).
# Experiments:
# Type in all cases: in vivo
# [1] = system: Alopecurus myosuroides (ALOMY); test: Pre-emergence biological efficacy, glasshouse pot test; details: 312 h, pre-emergence, 1,000 g/ha, evaluated after 13 days (100=total damage; 0=no damage), read-out: Percentage damage ALOMY
# Method in brief: (§1)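 One day after seeds were sown in pots, compound was sprayed at 1000 or 250 g/ha. Plants were kept at 24/16 °C with 14 h light and 65% humidity and watered twice daily; damage was graded at day 13 (0 none, 100 total).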
# [2] = system: Amaranthus retoflexus (AMARE); test: as above; details: Amaranthus retroflexus, 312 h; pre-emergence, 1,000 g/ha, evaluated after 13 days (100=total damage; 0=no damage); read-out: Percentage damage AMARE
# Method in brief: as §1
# [3] = system: Echinochloa crus-galli (ECHCG); test: as above; details: 312 h, pre-emergence, 1,000 g/ha, evaluated after 13 days (100=total damage; 0=no damage), read-out: Percentage damage ECHCG
# Method in brief: as §1
# [4] = system: Ipomea hederaceae (IPOHE); test: as above; details: Ipomoea hederacea, 312 h; pre-emergence, 1,000 g/ha, evaluated after 13 days (100=total damage; 0=no damage); read-out: Percentage damage IPOHE
# Method in brief: as §1
# [5] = system: Setaria faberi (SETFA); test: as above; details: 312 h, pre-emergence, 1,000 g/ha, evaluated after 13 days (100=total damage; 0=no damage), read-out: Percentage damage SETFA
# Method in brief: as §1
# [6] = system: Solanum nigrum (SOLNI); test: as above; details: 312 h, pre-emergence, 1,000 g/ha, evaluated after 13 days (100=total damage; 0=no damage), read-out: Percentage damage SOLNI
# Method in brief: as §1
# [7] = system: Alopecurus myosuroides (ALOMY); test: Post-emergence biological efficacy, glasshouse pot test; details: 312 h, post-emergence, 1,000 g/ha, evaluated after 13 days (100=total damage; 0=no damage), read-out: Percentage damage caused to weed species, ALOMY
# Method in brief: (§2)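 Plants were sown in standard soil and grown 8 days in a glasshouse (24/16° C. day/night, 14 hours light, 65% humidity), then sprayed post-emergence at 1000 or 250 g/ha from acetone/water (50:50) with 0.5% Tween 20. Damage was scored visually after 13 days (0 = none, 100 = total).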
# [8] = system: Amaranthus retoflexus (AMARE); test: as above; details: Amaranthus retroflexus, 312 h; post-emergence, 1,000 g/ha, evaluated after 13 days (100=total damage; 0=no damage); read-out: Percentage damage caused to weed species, AMARE
# Method in brief: as §2
# [9] = system: Echinochloa crus-galli (ECHCG); test: as above; details: 312 h, post-emergence, 1,000 g/ha, evaluated after 13 days (100=total damage; 0=no damage), read-out: Percentage damage caused to weed species, ECHCG
# Method in brief: as §2
# [10] = system: Ipomea hederaceae (IPOHE); test: as above; details: Ipomoea hederacea, 312 h; post-emergence, 1,000 g/ha, evaluated after 13 days (100=total damage; 0=no damage); read-out: Percentage damage caused to weed species, IPOHE
# Method in brief: as §2
# [11] = system: Setaria faberi (SETFA); test: as above; details: 312 h, post-emergence, 1,000 g/ha, evaluated after 13 days (100=total damage; 0=no damage), read-out: Percentage damage caused to weed species, SETFA
# Method in brief: as §2
# [12] = system: Solanum nigrum (SOLNI); test: as above; details: 312 h, post-emergence, 1,000 g/ha, evaluated after 13 days (100=total damage; 0=no damage), read-out: Percentage damage caused to weed species, SOLNI
# Method in brief: as §2
smiles,measurement,setting,value
"COC(=O)c1ccc(CNc2nc(C3CC3)nc(C(=O)OC)c2Cl)cc1 [Compound 4-94, 5-Chloro-2-cyclopropyl-6-methoxycarbonyl-4-(4-methoxy-carbonylphenyl-methylamino)-pyrimidine]",pest or weed control at 1000 g/ha,[1],10%
same,pest or weed control at 1000 g/ha,[2],70%
same,pest or weed control at 1000 g/ha,[3],10%
same,pest or weed control at 1000 g/ha,[4],50%
same,pest or weed control at 1000 g/ha,[5],10%
same,pest or weed control at 1000 g/ha,[6],80%
same,pest or weed control at 1000 g/ha,[7],10%
same,pest or weed control at 1000 g/ha,[8],100%
same,pest or weed control at 1000 g/ha,[9],10%
same,pest or weed control at 1000 g/ha,[10],100%
same,pest or weed control at 1000 g/ha,[11],30%
same,pest or weed control at 1000 g/ha,[12],90%
"COC(=O)c1nc(C2CC2)nc(NCc2cccc(-c3ccccc3)c2)c1Cl [Compound 4-95, 5-Chloro-2-cyclopropyl-6-methoxycarbonyl-4-(3-phenylphenyl-methylamino)-pyrimidine]",pest or weed control at 1000 g/ha,[1],10%
same,pest or weed control at 1000 g/ha,[2],60%
same,pest or weed control at 1000 g/ha,[3],10%
same,pest or weed control at 1000 g/ha,[4],30%
same,pest or weed control at 1000 g/ha,[5],10%
same,pest or weed control at 1000 g/ha,[6],30%
same,pest or weed control at 1000 g/ha,[7],20%
same,pest or weed control at 1000 g/ha,[8],90%
same,pest or weed control at 1000 g/ha,[9],60%
same,pest or weed control at 1000 g/ha,[10],100%
same,pest or weed control at 1000 g/ha,[11],60%
same,pest or weed control at 1000 g/ha,[12],80%
"COC(=O)c1nc(C2CC2)nc(NCc2cccc(F)c2F)c1Cl [Compound 4-96, 5-Chloro-2-cyclopropyl-4-(2,3-difluorophenyl-methylamino)-6-methoxycarbonyl-pyrimidine]",pest or weed control at 1000 g/ha,[1],10%
same,pest or weed control at 1000 g/ha,[2],60%
same,pest or weed control at 1000 g/ha,[3],20%
same,pest or weed control at 1000 g/ha,[4],50%
same,pest or weed control at 1000 g/ha,[5],30%
same,pest or weed control at 1000 g/ha,[6],60%
same,pest or weed control at 1000 g/ha,[7],20%
same,pest or weed control at 1000 g/ha,[8],100%
same,pest or weed control at 1000 g/ha,[9],80%
same,pest or weed control at 1000 g/ha,[10],100%
same,pest or weed control at 1000 g/ha,[11],90%
same,pest or weed control at 1000 g/ha,[12],100%
"COC(=O)c1nc(C2CC2)nc(NCc2ccc(F)cc2F)c1Cl [Compound 4-97, 5-Chloro-2-cyclopropyl-4-(2,4-difluorophenyl-methylamino)-6-methoxycarbonyl-pyrimidine]",pest or weed control at 1000 g/ha,[1],20%
same,pest or weed control at 1000 g/ha,[2],40%
same,pest or weed control at 1000 g/ha,[3],40%
same,pest or weed control at 1000 g/ha,[4],60%
same,pest or weed control at 1000 g/ha,[5],40%
same,pest or weed control at 1000 g/ha,[6],50%
same,pest or weed control at 1000 g/ha,[7],20%
same,pest or weed control at 1000 g/ha,[8],100%
same,pest or weed control at 1000 g/ha,[9],80%
same,pest or weed control at 1000 g/ha,[10],100%
same,pest or weed control at 1000 g/ha,[11],90%
same,pest or weed control at 1000 g/ha,[12],100%
"COC(=O)c1nc(C2CC2)nc(NCc2cc(F)ccc2F)c1Cl [Compound 4-98, 5-Chloro-2-cyclopropyl-4-(2,5-difluorophenyl-methyl-amino)-6-methoxycarbonyl-pyrimidine]",pest or weed control at 1000 g/ha,[1],30%
same,pest or weed control at 1000 g/ha,[2],50%
same,pest or weed control at 1000 g/ha,[3],20%
same,pest or weed control at 1000 g/ha,[4],60%
same,pest or weed control at 1000 g/ha,[5],30%
same,pest or weed control at 1000 g/ha,[6],60%
same,pest or weed control at 1000 g/ha,[7],40%
same,pest or weed control at 1000 g/ha,[8],100%
same,pest or weed control at 1000 g/ha,[9],80%
same,pest or weed control at 1000 g/ha,[10],100%
same,pest or weed control at 1000 g/ha,[11],100%
same,pest or weed control at 1000 g/ha,[12],100%
"COC(=O)c1nc(C2CC2)nc(NCc2c(F)cccc2F)c1Cl [Compound 4-99, 5-Chloro-2-cyclopropyl-4-(2,6-difluorophenylmeth-ylamino)-6-methoxycarbonyl-pyrimidine]",pest or weed control at 1000 g/ha,[1],30%
same,pest or weed control at 1000 g/ha,[2],60%
same,pest or weed control at 1000 g/ha,[3],50%
same,pest or weed control at 1000 g/ha,[4],60%
same,pest or weed control at 1000 g/ha,[5],50%
same,pest or weed control at 1000 g/ha,[6],60%
same,pest or weed control at 1000 g/ha,[7],50%
same,pest or weed control at 1000 g/ha,[8],100%
same,pest or weed control at 1000 g/ha,[9],100%
same,pest or weed control at 1000 g/ha,[10],100%
same,pest or weed control at 1000 g/ha,[11],100%
same,pest or weed control at 1000 g/ha,[12],100%
"COC(=O)c1nc(C2CC2)nc(NCc2cc(F)cc(F)c2)c1Cl [Compound 4-100, 5-Chloro-2-cyclopropyl-4-(3,5-difluorophenylmeth-ylamino)-6-methoxy-carbonylpyrimidine]",pest or weed control at 1000 g/ha,[1],20%
same,pest or weed control at 1000 g/ha,[2],70%
same,pest or weed control at 1000 g/ha,[3],40%
same,pest or weed control at 1000 g/ha,[4],50%
same,pest or weed control at 1000 g/ha,[5],20%
same,pest or weed control at 1000 g/ha,[6],60%
same,pest or weed control at 1000 g/ha,[7],30%
same,pest or weed control at 1000 g/ha,[8],100%
same,pest or weed control at 1000 g/ha,[9],70%
same,pest or weed control at 1000 g/ha,[10],100%
same,pest or weed control at 1000 g/ha,[11],100%
same,pest or weed control at 1000 g/ha,[12],100%
"COC(=O)c1nc(C2CC2)nc(NCc2ccc(Cl)cc2F)c1Cl [Compound 4-101, 5-Chloro-4-(4-chloro-2-fluoro-phenylmethyl-amino)-2-cyclopropyl-6-methoxycarbonyl-pyrimidine]",pest or weed control at 1000 g/ha,[1],10%
same,pest or weed control at 1000 g/ha,[2],70%
same,pest or weed control at 1000 g/ha,[3],30%
same,pest or weed control at 1000 g/ha,[4],70%
same,pest or weed control at 1000 g/ha,[5],10%
same,pest or weed control at 1000 g/ha,[6],30%
same,pest or weed control at 1000 g/ha,[7],30%
same,pest or weed control at 1000 g/ha,[8],100%
same,pest or weed control at 1000 g/ha,[9],50%
same,pest or weed control at 1000 g/ha,[10],100%
same,pest or weed control at 1000 g/ha,[11],90%
same,pest or weed control at 1000 g/ha,[12],100%
"COC(=O)c1nc(C2CC2)nc(NCc2ccc(Cl)cc2Cl)c1Cl [Compound 4-103, 5-Chloro-2-cyclopropyl-4-(2,4-dichlorophenyl-methylamino)-6-methoxycarbonyl-pyrimidine]",pest or weed control at 1000 g/ha,[1],10%
same,pest or weed control at 1000 g/ha,[2],40%
same,pest or weed control at 1000 g/ha,[3],0%
same,pest or weed control at 1000 g/ha,[4],30%
same,pest or weed control at 1000 g/ha,[5],0%
same,pest or weed control at 1000 g/ha,[6],10%
same,pest or weed control at 1000 g/ha,[7],20%
same,pest or weed control at 1000 g/ha,[8],100%
same,pest or weed control at 1000 g/ha,[9],60%
same,pest or weed control at 1000 g/ha,[10],90%
same,pest or weed control at 1000 g/ha,[11],70%
same,pest or weed control at 1000 g/ha,[12],80%
"COC(=O)c1nc(C2CC2)nc(NCc2c(Cl)cccc2Cl)c1Cl [Compound 4-104, 5-Chloro-2-cyclopropyl-4-(2,6-dichlorophenyl-methylamino)-6-methoxycarbonyl-pyrimidine]",pest or weed control at 1000 g/ha,[1],10%
same,pest or weed control at 1000 g/ha,[2],40%
same,pest or weed control at 1000 g/ha,[3],20%
same,pest or weed control at 1000 g/ha,[4],20%
same,pest or weed control at 1000 g/ha,[5],0%
same,pest or weed control at 1000 g/ha,[6],30%
same,pest or weed control at 1000 g/ha,[7],20%
same,pest or weed control at 1000 g/ha,[8],100%
same,pest or weed control at 1000 g/ha,[9],90%
same,pest or weed control at 1000 g/ha,[10],100%
same,pest or weed control at 1000 g/ha,[11],90%
same,pest or weed control at 1000 g/ha,[12],90%
"COC(=O)c1nc(C2CC2)nc(NCc2cc(C(F)(F)F)cc(C(F)(F)F)c2)c1Cl [Compound 4-108, 4-(3,5-Bis-trifluoro-methylphenyl-methylamino)-5-chloro-2-cyclo-propyl-6-methoxy-carbonylpyrimidine]",pest or weed control at 1000 g/ha,[1],0%
same,pest or weed control at 1000 g/ha,[2],40%
same,pest or weed control at 1000 g/ha,[3],0%
same,pest or weed control at 1000 g/ha,[4],40%
same,pest or weed control at 1000 g/ha,[5],10%
same,pest or weed control at 1000 g/ha,[6],0%
same,pest or weed control at 1000 g/ha,[7],10%
same,pest or weed control at 1000 g/ha,[8],50%
same,pest or weed control at 1000 g/ha,[9],10%
same,pest or weed control at 1000 g/ha,[10],70%
same,pest or weed control at 1000 g/ha,[11],20%
same,pest or weed control at 1000 g/ha,[12],90%
